Here are results for 19 compounds from patent US8580825B2, “Oxadiazole inhibitors of leukotriene production” (Boehringer Ingelheim International GmbH, priority 2010, dated 2013).

As usually defined, the IC50 is the point on the concentration scale where inhibition reaches its midpoint. The term inhibition denotes the relative decrease from the control value, in per cent.

The target in assay [1] is T1, recombinant human FLAP protein (Homo sapiens, UniProt P20292).
T1 construct: made in house; host or cells: Sf9 insect cells (100,000xg membrane fraction used)
T1 sequence (P20292 1-161): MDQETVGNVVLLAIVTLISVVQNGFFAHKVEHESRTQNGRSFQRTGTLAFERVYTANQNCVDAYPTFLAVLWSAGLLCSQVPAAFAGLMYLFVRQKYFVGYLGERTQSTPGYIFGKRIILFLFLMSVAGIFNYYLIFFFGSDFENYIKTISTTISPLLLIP
As to the kind of experiment: FLAP binding assay (Scintillation Proximity Assay, displacement of [125I]L-691,831). The conditions noted are these: for IC50: read-out: FLAP SPA IC50. The gist of the method: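 Scintillation proximity displacement of [125I]L-691,831 (0.08 nM) from membranes of sf9 cells expressing recombinant human FLAP (5 μg/well) on WGA SPA beads, pH 7.5 Tris buffer. Plates shaken 2 h before counting. Non-specific binding defined with 10 μM unlabelled L-691,831.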
On the technique in general: In a scintillation proximity assay essentially only radioactivity close to the scintillant gives light.

The test system of assay [2] is synthesis of LTB4 in human whole blood. Description: human whole blood LTB4 production inhibition assay. Type of assay: cell-based. The conditions noted are these: calcimycin stimulated, read-out: hWB LTB4 IC50. A digest of the protocol:
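Readout: plasma LTB4 by antibody-based HTRF. Compound added to heparinized human whole blood, 15 min 37° C; calcimycin 20 μM final (PBS pH 7.4), 30 min 37° C; spun 1500×g 5 min, plasma taken.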

Regarding `COCCn1cc(-c2nc([C@@](C)(c3ccc(-c4cnc(N)nc4)nc3)C3CC3)no2)cn1` [Example 75, 5-{5-[(1R)-1-cyclopropyl-1-{5-[1-(2-methoxyethyl)-1H-pyrazol-4-yl]-1,2,4-oxadiazol-3-yl}ethyl]pyridin-2-yl}pyrimidin-2-amine], the results for the 50% inhibitory concentration (IC50) in assay [1] and in assay [2] were 32 nM and 52 nM, respectively.
In the same order, the values of `COCCn1cc(-c2nc([C@](C)(c3ccc(-c4cnc(N)nc4)nc3)C3CC3)no2)cn1` [Example 76, 5-{5-[(1S)-1-cyclopropyl-1-{5-[1-(2-methoxyethyl)-1H-pyrazol-4-yl]-1,2,4-oxadiazol-3-yl}ethyl]pyridin-2-yl}pyrimidin-2-amine] are 190 nM and 2000 nM.
As for `CC(C)[C@](C)(c1ccc(-c2cnc(N)cn2)nc1)c1noc(-c2cnn(C)c2)n1` [Example 77, 5-(5-{(2R)-3-methyl-2-[5-(1-methyl-1H-pyrazol-4-yl)-1,2,4-oxadiazol-3-yl]butan-2-yl}pyridin-2-yl)pyrazin-2-amine], the IC50 in assay [1] is 0.14 nM; in assay [2] it was 15 nM.
With `C[C@@](c1ccc(-c2cnc(N)nc2)nc1)(c1noc(-c2cnn(C3COC3)c2)n1)C1CC1` [Example 78, 5-{5-[(1R)-1-cyclopropyl-1-{5-[1-(oxetan-3-yl)-1H-pyrazol-4-yl]-1,2,4-oxadiazol-3-yl}ethyl]pyridin-2-yl}pyrimidin-2-amine], the results for the IC50 in assay [1] and in assay [2] were 8 nM and 29 nM, respectively.
`C[C@](c1ccc(-c2cnc(N)nc2)nc1)(c1noc(-c2cnn(C3COC3)c2)n1)C1CC1` [Example 79, 5-{5-[(1S)-1-cyclopropyl-1-{5-[1-(oxetan-3-yl)-1H-pyrazol-4-yl]-1,2,4-oxadiazol-3-yl}ethyl]pyridin-2-yl}pyrimidin-2-amine]: the IC50 in assay [1] is 140 nM; in assay [2], 650 nM.
As to `CNC(=O)Cn1cc(-c2nc(C(C)(c3ccc(-c4cnc(N)nc4)nc3)C(C)C)no2)cn1` (centres unmarked) [Example 80, 2-[4-(3-{2-[6-(2-aminopyrimidin-5-yl)pyridin-3-yl]-3-methylbutan-2-yl}-1,2,4-oxadiazol-5-yl)-1H-pyrazol-1-yl]-N-methylacetamide], the results for the IC50 in assay [1] and in assay [2] were 5.6 nM and 230 nM, respectively.
In the case of `CN(C)C(=O)Cn1cc(-c2nc([C@@](C)(c3ccc(-c4cnc(N)nc4)nc3)C3CC3)no2)cn1` [Example 83, 2-[4-(3-{(1R)-1-[6-(2-aminopyrimidin-5-yl)pyridin-3-yl]-1-cyclopropylethyl}-1,2,4-oxadiazol-5-yl)-1H-pyrazol-1-yl]-N,N-dimethylacetamide], the IC50 in assay [1] stood at 76 nM; in assay [2], 200 nM.
On to `CN(C)C(=O)Cn1cc(-c2nc([C@](C)(c3ccc(-c4cnc(N)nc4)nc3)C3CC3)no2)cn1` [Example 84, 2-[4-(3-{(1S)-1-[6-(2-aminopyrimidin-5-yl)pyridin-3-yl]-1-cyclopropylethyl}-1,2,4-oxadiazol-5-yl)-1H-pyrazol-1-yl]-N,N-dimethylacetamide], for which the inhibition at 1 µM in assay [1] (read-out: FLAP SPA inhibition at 1 uM) is 45%. Also, in assay [2], the IC50 turned out to be 2900 nM.
For the compound `CC(C)C(C)(c1ccc(-c2cnc(N)nc2)nc1)c1noc(-c2cn(CC(C)(C)O)cn2)n1` (centres unmarked) [Example 85, 1-[4-(3-{2-[6-(2-aminopyrimidin-5-yl)pyridin-3-yl]-3-methylbutan-2-yl}-1,2,4-oxadiazol-5-yl)-1H-imidazol-1-yl]-2-methylpropan-2-ol], the IC50 is 350 nM in assay [1] and 1900 nM in assay [2].
As for `Cn1cc(-c2nc(C(C)(C)c3ccc(-c4cnc(N)nc4)nc3)no2)cn1` [Example 86, 5-(5-{2-[5-(1-methyl-1H-pyrazol-4-yl)-1,2,4-oxadiazol-3-yl]propan-2-yl}pyridin-2-yl)pyrimidin-2-amine], the figures for the IC50 in assay [1] and in assay [2] were 140 nM and 790 nM, respectively.
On to `CC(C)(c1ccc(-c2cnc(N)nc2)nc1)c1noc(-c2cn[nH]c2)n1` [Example 87, 5-(5-{2-[5-(1H-pyrazol-4-yl)-1,2,4-oxadiazol-3-yl]propan-2-yl}pyridin-2-yl)pyrimidin-2-amine], for which the IC50 in assay [1] is 670 nM; in assay [2] it was greater than 5000 nM.
In the same order, the values of `CC(C)(O)Cn1cc(-c2nc(C(C)(C)c3ccc(-c4cnc(N)nc4)nc3)no2)cn1` [Example 88, 1-[4-(3-{2-[6-(2-aminopyrimidin-5-yl)pyridin-3-yl]propan-2-yl}-1,2,4-oxadiazol-5-yl)-1H-pyrazol-1-yl]-2-methylpropan-2-ol] are 370 nM and 1500 nM.
Turning to `COCCn1cc(-c2nc(C(C)(C)c3ccc(-c4cnc(N)nc4)nc3)no2)cn1` [Example 89, 5-[5-(2-{5-[1-(2-methoxyethyl)-1H-pyrazol-4-yl]-1,2,4-oxadiazol-3-yl}propan-2-yl)pyridin-2-yl]pyrimidin-2-amine], the IC50 in assay [1] came out at 230 nM; in assay [2] it was 880 nM.
The corresponding values for `COC(=O)C(C)(C)n1cc(-c2nc(C(C)(C)c3ccc(-c4cnc(N)nc4)nc3)no2)cn1` [Example 90, methyl 2-[4-(3-{2-[6-(2-aminopyrimidin-5-yl)pyridin-3-yl]propan-2-yl}-1,2,4-oxadiazol-5-yl)-1H-pyrazol-1-yl]-2-methylpropanoate] are 140 nM and 950 nM.
For the compound `COCCOCCn1cc(-c2nc(C(C)(C)c3ccc(-c4cnc(N)nc4)nc3)no2)cn1` [Example 91, 5-{5-[2-(5-{1-[2-(2-methoxyethoxy)ethyl]-1H-pyrazol-4-yl}-1,2,4-oxadiazol-3-yl)propan-2-yl]pyridin-2-yl}pyrimidin-2-amine], the values for the concentration for half-maximal inhibition (IC50) in assay [1] and in assay [2] were 300 nM and 1500 nM, respectively.
Consider `CC(C)Nc1cnc(-c2nc([C@@](C)(c3ccc(-c4cnc(N)nc4)nc3)C(C)C)no2)cn1` [Example 92, 5-[5-{(R)-1-[5-(5-Isopropylamino-pyrazin-2-yl)-[1,2,4]oxadiazol-3-yl]-1,2-dimethyl-propyl}-pridin-2-yl)-pyrimidin-2-ylamine], for which the IC50 in assay [1] is 15 nM; in assay [2] it was 92 nM.
Consider `CC(C)Nc1cnc(-c2nc([C@](C)(c3ccc(-c4cnc(N)nc4)nc3)C(C)C)no2)cn1` [Example 93, 5-(5-{(S)-1-[5-(5-Isopropylamino-pyrazin-2-yl)-[1,2,4]oxadiazol-3-yl]-1,2-dimethyl-propyl}-pyridin-2-yl)-pyrimidin-2-ylamine], for which the figures for the half-maximal inhibitory concentration (IC50) in assay [1] and in assay [2] were 21 nM and 28 nM, respectively.
The corresponding values for `CC(C)[C@](C)(c1ccc(-c2cnc(N)nc2)nc1)c1noc(-c2cnc(NC(C)(C)CO)cn2)n1` [Example 94, 2-[5-(3-{(R)-1-[6-(2-Amino-pyrimidin-5-yl)-pyridin-3-yl]-1,2-dimethyl-propyl}-[1,2,4]oxadiazol-5-yl)-pyrazin-2-ylamino]-2-methyl-propan-1-ol] are 26 nM and 74 nM.
For `CC(C)[C@@](C)(c1ccc(-c2cnc(N)nc2)nc1)c1noc(-c2cnc(NC(C)(C)CO)cn2)n1` [Example 95, 2-[5-(3-{(S)-1-[6-(2-Amino-pyrimidin-5-yl)-pyridin-3-yl]-1,2-dimethyl-propyl}-[1,2,4]oxadiazol-5-yl)-pyrazin-2-ylamino]-2-methyl-propan-1-ol], the IC50 in assay [1] turned out to be 92 nM; in assay [2] it was 210 nM.
